What all share (format): functional, cell-based
The test system of test [1] is A549. Kind of test: Cytotoxicity was measured against neoplastic cultured A-549 cells of human lung carcinoma.
The subject of test [2] is SK-MEL-28. Kind of test: Cytotoxicity was measured against neoplastic cultured MEL-28 cells of malign human melanoma.
Test [3] concerns P388. Put plainly: Cytotoxicity was measured against neoplastic cultured P-388 cells of murine leukemia. The settings on record: Mus musculus.
Test [4] relates to HT-29. Kind of test: Cytotoxicity was measured against neoplastic cultured HT-29 cells of human colon carcinoma.

Some results are limits rather than exact numbers.

Take `CC(C)=CCCC1=CCC2C(=O)c3ccccc3C(=O)C2C1` (stereo not given): the IC50 – broadly, the point on the concentration scale where inhibition reaches its midpoint – is 8.5 µM in test [1], greater than 34 µM in test [2], 8.5 µM in test [3] and greater than 34 µM in test [4].

`CC(C)=CCCC1=CCC2=C(C1)C(=O)c1ccccc1C2=O`: the IC50 is 17 µM in test [1], greater than 34 µM in test [2], 17 µM in test [3] and greater than 34 µM in test [4].

With `CC(=O)Oc1cc(C)c(OC(C)=O)c2c1CC=C(CCC=C(C)C)C2`, the IC50 was determined as 2.9 µM in test [1], 14.6 µM in test [2], 2.9 µM in test [3] and 14.6 µM in test [4].

Turning to `CC(C)=CCCC1=CCC2=C(C1)C(=O)C(C)=CC2=O`, the IC50 was determined as 3.9 µM in test [1], 9.8 µM in test [2], 3.9 µM in test [3] and 19.5 µM in test [4].

`CC(C)=CCCC1=CCC2=C(C1)C(=O)C=CC2=O`: the IC50 in test [1] came to 2.1 µM; in test [2] it was 2.1 µM; in test [3], 1 µM; in test [4] it was 2.1 µM.

Regarding `CC(=O)Oc1cc(C)c(OC(C)=O)c2cc(CCC=C(C)C)ccc12`, the IC50 was found to be 1.5 µM in test [1], 3.5 µM in test [2], 2.9 µM in test [3] and 7.3 µM in test [4].

As for `CC(C)=CCCc1ccc2c(c1)C(=O)C(C)=CC2=O`, the IC50 in test [1] is 3.9 µM; in test [2] it was 9.8 µM; in test [3], 3.9 µM; in test [4], 19.6 µM.

On to `CC(C)=CCCc1ccc2c(c1)C(=O)C=CC2=O`, for which the IC50 in test [1] was 1 µM; in test [2], 0.4 µM; in test [3], 0.4 µM; in test [4], 1 µM.

As for `CC(=O)Oc1ccc(OC(C)=O)c2c1CC=C(CCC=C(C)C)C2`, the IC50 worked out at 3.6 µM in test [1], 3.6 µM in test [2], 1.5 µM in test [3] and 3.6 µM in test [4].

Regarding `CC(C)=CCCC1=CCc2c(O)cc(C)c(O)c2C1`, the IC50 was 3.8 µM in test [1], 19.4 µM in test [2], 3.8 µM in test [3] and 19.4 µM in test [4].

As for `CC(C)=CCCC1=CCc2c(O)ccc(O)c2C1`, the IC50 in test [1] came out at 4.9 µM; in test [2], 4.9 µM; in test [3] it was 2.1 µM; in test [4], 4.9 µM.

On to `CC1=CCC[C@H]2[C@](C)(Cc3cc(O)ccc3O)[C@@H](C)CC[C@]12C` [AVAROL], for which the IC50 in test [1] amounted to 6 µM; in test [2] it was 6 µM; in test [3], 3.1 µM; in test [4] it was 6 µM.

With `CC1=CCC[C@H]2[C@](C)(CC3=CC(=O)C=CC3=O)[C@@H](C)CC[C@]12C` [AVARONE], the IC50 was determined as 6 µM in test [1], 6 µM in test [2], 3.1 µM in test [3] and 6 µM in test [4].

Consider `O=C1C=CC(=O)C=C1` [BENZOQUINONE], for which the IC50 was 46.2 µM in test [1], 46.2 µM in test [2], 11.1 µM in test [3] and 46.2 µM in test [4].

Take `O=C1C=CC(=O)c2ccccc21` [NAPHTHOQUINONE]: the IC50 in test [1], in test [2], in test [3] and in test [4] was greater than 63.2 µM each time.

The record behind these values is ChEMBL document CHEMBL1151602, “Synthesis and bioactivity of new antineoplastic terpenylquinones” (Bioorg Med Chem Lett, 1996).
